For three compounds, IC50 results are on record in article PMC10731637, “Design, Synthesis, and Biological Studies of Flavone-Based Esters and Acids as Potential P450 2A6 Inhibitors” (Chemical Research in Toxicology, 2023).

For this experiment, the target named is T1, Cytochrome P450 2A6 (CYP2A6) (Homo sapiens, UniProt P11509).
T1 sequence (P11509 1-494): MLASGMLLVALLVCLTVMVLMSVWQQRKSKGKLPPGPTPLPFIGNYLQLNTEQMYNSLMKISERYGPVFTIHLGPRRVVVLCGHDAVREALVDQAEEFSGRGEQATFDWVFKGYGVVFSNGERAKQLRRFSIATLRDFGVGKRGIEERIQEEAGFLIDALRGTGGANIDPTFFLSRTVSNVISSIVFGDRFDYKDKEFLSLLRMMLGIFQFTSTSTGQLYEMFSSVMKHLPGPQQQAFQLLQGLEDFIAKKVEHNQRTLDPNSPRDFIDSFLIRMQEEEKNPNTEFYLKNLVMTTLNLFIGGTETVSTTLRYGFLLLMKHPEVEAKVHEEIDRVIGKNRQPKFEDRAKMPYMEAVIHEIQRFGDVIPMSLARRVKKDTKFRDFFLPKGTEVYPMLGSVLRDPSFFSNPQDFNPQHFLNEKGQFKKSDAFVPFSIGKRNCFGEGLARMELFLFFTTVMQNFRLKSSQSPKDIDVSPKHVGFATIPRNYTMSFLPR
The experiment can be described thus: Vivid CYP450 fluorescence inhibition assay with CYP2A6 baculosomes, 10-point dose-response. It is filed as biochemical.
For orientation: IC50 means the concentration needed to halve the response being measured. High values mean weaker potency, low ones greater potency. Compound `CCOC(=O)COc1c(-c2ccccc2)oc2ccccc2c1=O` [compound 2, Ethyl 2-((4-Oxo-2-phenyl-4H-chromen-3-yl)oxy)acetate] showed an IC50 of 4.61 µM. This counts as single-digit micromolar.

Compound `CCOC(=O)COc1ccccc1-c1cc(=O)c2ccccc2o1` [compound 1, Ethyl 2-(2-(4-Oxo-4H-chromen-2-yl)phenoxy)acetate] registered an IC50 of 37.9 µM.

Turning to `O=C(O)COc1ccccc1-c1cc(=O)c2ccccc2o1` [compound 6, 2-(2-(4-Oxo-4H-chromen-2-yl)phenoxy)acetic Acid], the IC50 came out at 1.57 µM. This IC50 lies about 24-fold lower than the previous one.
